Structures are written as SMILES.

Assay [1] has as its target T1, C-C chemokine receptor type 3 (Homo sapiens, UniProt P51677).
T1 sequence (P51677 whole entry): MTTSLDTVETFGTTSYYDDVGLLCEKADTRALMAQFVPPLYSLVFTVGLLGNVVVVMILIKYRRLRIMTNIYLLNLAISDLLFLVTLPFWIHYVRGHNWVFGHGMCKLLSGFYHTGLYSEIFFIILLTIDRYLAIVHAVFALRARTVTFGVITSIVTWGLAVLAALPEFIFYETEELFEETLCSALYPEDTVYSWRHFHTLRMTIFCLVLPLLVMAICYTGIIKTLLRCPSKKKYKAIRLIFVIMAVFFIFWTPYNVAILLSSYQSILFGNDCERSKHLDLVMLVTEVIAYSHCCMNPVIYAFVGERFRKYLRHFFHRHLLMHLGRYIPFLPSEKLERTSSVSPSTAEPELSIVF
Nature of the assay: Displacement of [125I] eotaxin from human CCR3 receptor in CHO cells. The format is cell-based.

The target of assay [2] is T2, C-C chemokine receptor type 3 (Homo sapiens) (UniProt P51677).
T2 sequence (whole entry): T1 sequence (P51677 whole entry)
The assay can be described thus: Antagonist activity at human CCR3 receptor assessed as inhibition of chemotaxis in eosinophil at 3 nM. The format is functional. Also on record: scale not given: the % may be the effect or the level left.

In assay [3] the target is T2, C-C chemokine receptor type 3 (Homo sapiens). The assay can be described thus: Antagonist activity at human CCR3 receptor assessed as inhibition of chemotaxis in eosinophil at 30 nM. The format is functional. The arrangement: scale not given: the % may be the effect or the level left.
Assay [4] shares this target. Nature of the assay: Antagonist activity at human CCR3 receptor assessed as inhibition of chemotaxis in eosinophil at 0.03 nM. Also on record: scale not given: the % may be the effect or the level left. The format is functional.
Assay [5] has the same target. The assay can be described thus: Antagonist activity at human CCR3 receptor assessed as inhibition of chemotaxis in eosinophil at 0.3 nM. The format is functional. Also on record: scale not given: the % may be the effect or the level left.
The target of assay [6] is C-C chemokine receptor type 3 (Homo sapiens, UniProt P51677). Nature of the assay: Displacement of [125I] eotaxin from human CCR3/CCR2 chimeric receptor in CHO cells. The format is cell-based. (In general: Loss of bound radioactivity is the signal in a displacement assay; it reports binding, not function.)

The compound `C[C@H]([C@@H](O)c1ccccc1)N(C)C[C@H](O)[C@@H](C)NC(=O)Nc1cccc(-c2nnnn2C)c1` yielded an IC50 in assay [1] of 238 nM. Same read-out and setting: with `CCc1cc(NC(=O)N[C@H](C)[C@@H](O)CN(C)[C@@H](C)[C@@H](O)c2ccccc2)cc(-c2nnnn2C)c1` the figure was 0.5 nM. With `C[C@@H](NC(=O)Nc1cccc(-c2nnnn2C)c1)[C@@H](O)CN(CCCc1ccc(F)cc1)CC1CC1`, the Activity in assay [2] worked out at 44%. This compound also yielded an IC50 in assay [1] of 0.4 nM. With `CCc1cc(NC(=O)N[C@H](C)[C@@H](O)CN(CCCc2ccc(F)cc2)C2CCCCC2)cc(-c2nnnn2C)c1`, the Activity in assay [2] was determined as 0%; in assay [3], 58%. In assay [1], this compound yielded a 50% inhibitory concentration (IC50) of 3.2 nM. Take `CCc1cc(NC(=O)N[C@H](C)[C@@H](O)CN(CCCc2ccc(F)cc2)C(C)=O)cc(-c2nnnn2C)c1`: in assay [1], the half-inhibitory concentration (IC50) amounted to 6 nM. Same read-out and setting: with `CCc1cc(NC(=O)N[C@H](C)[C@@H](O)CN2CCC[C@@H](Cc3ccc(F)cc3)C2)cc(-c2nnnn2C)c1` the figure was 1.8 nM; with `CCc1cc(NC(=O)N[C@H](C)[C@@H](O)CN(CCCc2ccc(F)cc2)CC2CC2)cc(-c2nnnn2C)c1`, 0.6 nM.

Compound `C[C@@H](NC(=O)Nc1cccc(-c2nnnn2C)c1)[C@@H](O)CN(CCCc1ccc(F)cc1)CC(F)(F)F` yielded an IC50 in assay [1] of 59 nM. `Cn1nnnc1-c1cccc(NC(=O)N[C@@H]2CCCC[C@H]2CNCCCc2ccc(F)cc2)c1` showed a half-maximal inhibitory concentration (IC50) in assay [1] of 3.7 nM. On the same count and under the same terms, for `CCN(C[C@H](O)[C@@H](C)NC(=O)Nc1cccc(-c2nnnn2C)c1)[C@@H](C)CCc1ccc(F)cc1` the value was 2.5 nM.

Turning to `CCc1cc(NC(=O)N[C@H](C)[C@@H](O)CN(CCCc2ccc(F)cc2)Cc2ccccc2)cc(-c2nnnn2C)c1`, the values for the Activity in assay [4] and in assay [5] were 9% and 61%, respectively. Also, the IC50 in assay [1] worked out at 2.5 nM. In turn, `CCN(C[C@H](O)[C@@H](C)NC(=O)Nc1cccc(-c2nnnn2C)c1)[C@@H](C)[C@@H](O)Cc1ccc(F)cc1` yielded an IC50 in assay [1] of 19 nM. With `CN(CCCc1ccc(F)cc1)C[C@@H]1CCCC[C@H]1NC(=O)Nc1cccc(-c2nnnn2C)c1`, the IC50 in assay [1] came out at 0.6 nM.

The compound `CCc1cc(NC(=O)N[C@H](C)[C@@H](O)CN(CC)[C@@H](C)[C@@H](O)Cc2ccc(F)cc2)cc(-c2nnnn2C)c1` registered an IC50 in assay [1] of 1.2 nM. Turning to `CCCN(CCCc1ccc(F)cc1)C[C@H](O)[C@@H](C)NC(=O)Nc1cccc(-c2nnnn2C)c1`, in assay [2], the Activity amounted to 43%. The half-maximal inhibitory concentration (IC50) in assay [1] amounted to 0.2 nM. Take `CCc1cc(NC(=O)N[C@H](C)[C@@H](O)CNCCCc2ccc(F)cc2)cc(-c2nnnn2C)c1`: the Activity in assay [2] turned out to be 42%; in assay [3], 55%. The compound also had an IC50 in assay [1] of 0.3 nM.

Turning to `C[C@@H](NC(=O)Nc1cccc(-c2nnnn2C)c1)[C@@H](O)CN(CCCc1ccc(F)cc1)C1CC1`, the IC50 in assay [1] is 0.4 nM. With `CCN(CCCc1ccc(F)cc1)C[C@H](O)[C@@H](C)NC(=O)Nc1cccc(-c2nnnn2C)c1`, in assay [5], the Activity was determined as 34%. Further, the IC50 in assay [1] amounted to 0.2 nM. The compound `C[C@@H](NC(=O)Nc1cccc(-c2nnnn2C)c1)[C@@H](O)CN(C)[C@@H](C)[C@H](O)c1ccccc1` had a 50% inhibitory concentration (IC50) in assay [1] of 5.7 nM. In assay [1] (cho), `CCc1cc(NC(=O)N[C@H](C)[C@@H](O)CN(CC)CCCc2ccc(F)cc2)cc(-c2nnnn2C)c1` (stereo in doubt; 5Et) registered a concentration for half-maximal inhibition (IC50) of 0.4 nM. In assay [1], `C[C@@H](NC(=O)Nc1cccc(-c2nnnn2C)c1)[C@@H](O)CN(CCCc1ccc(F)cc1)C1CCCCC1` displayed a concentration for half-maximal inhibition (IC50) of 2.5 nM. Same read-out and setting: for `C[C@@H](NC(=O)Nc1cccc(-c2nnnn2C)c1)[C@@H](O)CN(CCCc1ccc(F)cc1)CC12CC3CC(CC(C3)C1)C2` the value was 421 nM. Same read-out and setting: for `CCc1cc(NC(=O)N[C@H](C)[C@@H](O)CN(C)CCCc2ccc(F)cc2)cc(-c2nnnn2C)c1` the value was 0.3 nM; for `C[C@H]([C@H](O)c1ccccc1)N(C)C[C@H](O)[C@@H](C)NC(=O)Nc1cccc(-c2nnnn2C)c1`, 577 nM. For the compound `C[C@@H](NC(=O)Nc1cccc(-c2nnnn2C)c1)[C@@H](O)CN1CCC[C@@H](Cc2ccc(F)cc2)C1`, the values for the IC50 in assay [6] and in assay [1] were 0.4 nM and 0.3 nM, respectively. The compound `C[C@@H](NC(=O)Nc1cccc(-c2nnnn2C)c1)[C@@H](O)CN(C)[C@@H](C)[C@@H](O)c1ccccc1` yielded an IC50 in assay [1] of 0.4 nM. In addition, the Activity in assay [3] is 67%.

`CCN(C[C@H](O)[C@@H](C)NC(=O)Nc1cccc(-c2nnnn2C)c1)[C@@H](C)[C@H](O)Cc1ccc(F)cc1`: the 50% inhibitory concentration (IC50) in assay [1] was 88 nM. Take `CCc1cc(NC(=O)N[C@H](C)[C@@H](O)CN(CCCc2ccc(F)cc2)CC23CC4CC(CC(C4)C2)C3)cc(-c2nnnn2C)c1`: the IC50 in assay [1] is 211 nM. As to `Cn1nnnc1-c1cccc(NC(=O)N[C@@H]2CCCC[C@H]2CN(CCCc2ccc(F)cc2)CC(F)(F)F)c1`, the concentration for half-maximal inhibition (IC50) in assay [1] is 60 nM. The same measure, in the same setting: with `CCc1cc(NC(=O)N[C@H](C)[C@@H](O)CN(CCCc2ccc(F)cc2)S(C)(=O)=O)cc(-c2nnnn2C)c1` the figure was 21.6 nM; with `CCc1cc(NC(=O)N[C@H](C)[C@@H](O)CN(CCCc2ccc(F)cc2)C2CC2)cc(-c2nnnn2C)c1`, 0.6 nM. Same read-out and setting: for `CCc1cc(NC(=O)N[C@H](C)[C@@H](O)CN(CC)CCCc2ccc(F)cc2)cc(-c2nnnn2C)c1` (stereo in doubt; 5b) the value was 0.4 nM. On the same count and under the same terms, for `CCc1cc(NC(=O)N[C@H](C)[C@@H](O)CN(CCCc2ccc(F)cc2)CC(F)(F)F)cc(-c2nnnn2C)c1` the value was 9 nM; for `CCc1cc(NC(=O)N[C@H](C)[C@@H](O)CN(CC)[C@@H](C)[C@H](O)Cc2ccc(F)cc2)cc(-c2nnnn2C)c1`, 3.4 nM; for `CCc1cc(NC(=O)N[C@H](C)[C@@H](O)CN(CC)[C@@H](C)CCc2ccc(F)cc2)cc(-c2nnnn2C)c1`, 0.2 nM. In the case of `CCCN(CCCc1ccc(F)cc1)C[C@H](O)[C@@H](C)NC(=O)Nc1cc(CC)cc(-c2nnnn2C)c1`, the Activity in assay [4] was determined as 42%; in assay [5], 62%. In assay [1], the half-maximal inhibitory concentration (IC50) is 0.5 nM. `C[C@@H](NC(=O)Nc1cccc(-c2nnnn2C)c1)[C@@H](O)CN(C)CCCc1ccc(F)cc1` registered an IC50 in assay [1] of 0.4 nM. Besides, in assay [3], the Activity amounted to 0%.

Usually IC50 stands for the concentration needed to halve the response being measured.
